One test deals with MCF7 cells. Kind of test: crystal violet assay, cellular viability. The test is classed as cell-based, human. The settings on record: for IC50: MCF7, 48 h, read-out: IC50 cellular viability; for viability at 10 µM: MCF7, 10 μM. How it is done:
(§1) Compound 1 and compound 2 were tested in their efficacy to kill malignant MCF7 cancer cells. Briefly, 10.000 cells per well were seeded in a 96-well plat on one day and the next day selected compounds were added and incubated with the cells for 48 hrs. The cells were then fixed with 4% paraformaldehyde, stained with 0.05% crystal violet, washed with PBS, and solubilized in 1% SDS. The absorbance of the plate at 595 nm was then measured, quantifying the number of viable cells.
(§2) A number of compounds of the present invention were tested for cytotoxicity towards at least some of human breast cancer cell lines (MCF7, MDA-MB-231), human fibroblast (BJ) and murine triple negative breast cancer cell line 4T1 (Table 2).

For test [1], the system named is pancreatic cell line BxPC3. Kind of test: dose-effect relationship of drugs and mixtures, crystal violet assay, Median-Effect / Combination index. Particulars: for IC50: read-out: Median-Effect Plot parameter IC50. Format: cell-based. As for the experimental part:
(§3) The potentiation of cytotoxic effect of compound 2 in combination with several cytostatics was evaluated. The dose-effect relationship of individual drugs and mixtures of compound 2 with paclitaxel, cis Pt (cis-platin), doxorubicin and fluorouracil was determined on human mammary gland cancer cell line MDA-MB-231 and pancreatic cell line BxPC3 by means of crystal violet assay. The linearized Median-Effect Plot of dose response line provided both parameters (IC50; trend line m(slope) value) of Median-Effect Equation for individual and combination treatment [ref: Theoretical basis, experimental design, and computerized simulation of synergism and antagonism in drug combination studies; Ting-Chao Chou: Pharmacol Rev. 58(3), 2006, 621-81; Erratum in Pharmacol Rev. 2007; 59(1), 124]:
(§4) Potentiation of combination effect of compound 2 was expressed for concentrations IC50, IC75, IC90, IC95 by calculation of Combination index (CI) applying Combination Index Theorem for mutually exclusive drugs. Overall CI was expressed by means of weighted average of IC50, IC75, IC90, IC95 [ref: Quantitative analysis of dose-effect relationships: the combined effects of multiple drugs or enzyme inhibitors; Ting-Chao Chou, Paul Talalay: Advances in Enzyme Regulation, Volume 22, 1984, Pages 27-55]: […]

The subject of another test is non malignant cells (BJ). Kind of test: AnnexinV/PI cell death assay. Format: cell-based. Particulars: ratio Ga:compound 2 1:0, 5 μM gallium salt alone. How it is done: To confirm such findings by an independent method, cell death-inducing potency (cytotoxic efficacy) of DFO and compound 2 have been tested via annexin V/PI staining commonly used as a measure of apoptotic/necrotic cell death. Briefly, cells were seeded in 12-well plate at 100,000 per well, incubated with the selected compounds for 48 hours, then floating cells were spun, adherent cells trypsinized and spun as well followed by the staining with AnnexinV-FITC and PI probes. Cells were then washed with PBS and measured via Fluorescence Activated Sorter.
We have then analyzed the percentage of death cells by the annexinV/PI staining as described in example 7. We have observed a significant potentiation in cell death induction when gallium was combined with compound 2 (Table 14)

Another test relates to BT474 cells. The test is described as follows: crystal violet assay, cellular viability. The test is classed as cell-based. Particulars: crystal violet.
The subject of another test is MDA-MB-231 cells. The test is described as follows: crystal violet assay, cellular viability. The settings on record: for mean percentage of surviving cells compared to non-treated controls: crystal violet. The test is classed as cell-based, human. How it is done:
as §1, §2

Test [2] has as its system human mammary gland cancer cell line MDA-MB-231. The test is described as follows: dose-effect relationship of drugs and mixtures, crystal violet assay, Median-Effect / Combination index. The test is classed as cell-based. The settings on record: for IC50: Homo sapiens, Chou-Talalay method, read-out: Median-Effect Plot parameter IC50; for IC50 / Median-Effect Plot parameter m (slope): MDA-MB-231, crystal violet, 48 hours; for concentration of the cytostatic at IC75, cytostatic alone: MDA-MB-231. How it is done:
as §3, §4

Setting [3] is: Homo sapiens, 48 hrs, crystal violet, read-out: mean percentage of viable cells compared to non-treated controls.

Like-named read-outs stand apart in the source and are kept apart here.

This note sets out measurements from US20200078379A1, “DEFEROXAMINE DERIVATIVES AS MEDICAMENTS” (BIOTECHNOLOGICKY USTAV AV CR, V.V.I., priority 2017, published 2020).

By IC50 is commonly meant the point on the concentration scale where inhibition reaches its midpoint. As for `CC(=O)N(O)CCCCCNC(=O)CCC(=O)N(O)CCCCCNC(=O)CCC(=O)N(O)CCCCCNCCCCCCCCCC[P+](c1ccccc1)(c1ccccc1)c1ccccc1` [Compound 1, Triphenyl(3,14,25-trihydroxy-2,10,13,21,24-pentaoxo-3,9,14,20,25,31-hexaazahentetracontan-41-yl) phosphonium chloride], the half-inhibitory concentration (IC50) in the test on MCF7 cells (Homo sapiens, crystal violet) amounted to 2.2 µM. Besides, the viability at 1 µM in the test with MCF7 cells (Homo sapiens, MCF7, 1 μM, 48 hrs, crystal violet, read-out: mean percentage of viable cells compared to non-treated controls) stood at 83.3%. In addition, the viability at 2 µM with MCF7 cells (Homo sapiens, MCF7, 2 μM, 48 hrs, crystal violet, read-out: mean percentage of viable cells compared to non-treated controls) was 48.2%. Further, the viability at 5 µM with MCF7 cells (Homo sapiens, MCF7, 5 μM, 48 hrs, crystal violet, read-out: mean percentage of viable cells compared to non-treated controls) was determined as 15.2%. The viability at 10 µM in the test with MCF7 cells (setting [3]) was 11.9%.

With `CCCCCCCC[P+](CCCCCCCC)(CCCCCCCC)CCCCCCCCCCNCCCCCN(O)C(=O)CCC(=O)NCCCCCN(O)C(=O)CCC(=O)NCCCCCN(O)C(C)=O` [Compound 11, 3,14,25-trihydroxy-42,42-dioctyl-2,10,13,21,24-pentaoxo-3,9,14,20,25,31-hexaaza-42-phosphapentacontane-31,42-diium dichloride], the half-maximal inhibitory concentration (IC50) in the test on MCF7 cells (Homo sapiens, crystal violet) worked out at 4 µM.

For `CC(=O)N(O)CCCCCNC(=O)CCC(=O)N(O)CCCCCNC(=O)CCC(=O)N(O)CCCCCN(CCCCOCCCCCCCCCC[P+](c1ccccc1)(c1ccccc1)c1ccccc1)CCCCOCCCCCCCCCC[P+](c1ccccc1)(c1ccccc1)c1ccccc1` [Compound 15, 3-(diphenyl(3,14,25-trihydroxy-2,10,13,21,24-pentaoxo-31-(4-((10-(triphenylphosphonio)decyl)oxy)butyl)-36-oxa-3,9,14,20,25,31-hexaazahexatetracontan-31-ium-46-yl)phosphonio)benzen-1-ide trichloride], in the test on MCF7 cells (Homo sapiens, crystal violet), the IC50 turned out to be 0.5 µM.

For `CC(=O)ON(CCCCCNC(=O)CCC(=O)N(CCCCCNC(=O)CCC(=O)N(CCCCCN(CCCCCCCCCC[P+](c1ccccc1)(c1ccccc1)c1ccccc1)CCCCCCCCCC[P+](c1ccccc1)(c1ccccc1)c1ccccc1)OC(C)=O)OC(C)=O)C(C)=O` [Compound 16, (15,26-diacetoxy-4-acetyl-2,11,14,22,25-pentaoxo-32-(10-(triphenylphosphonio)decyl)-3-oxa-4,10,15,21,26,32-hexaazadotetracontan-32-ium-42-yl)triphenylphosphonium trichloride], the IC50 in the test on MCF7 cells (Homo sapiens) amounted to 0.8 µM.

For the compound `CCCCCCCCCCCCCCCC(=O)ON(CCCCCNC(=O)CCC(=O)N(CCCCCNC(=O)CCC(=O)N(CCCCCN(CCCCCCCCCC[P+](c1ccccc1)(c1ccccc1)c1ccccc1)CCCCCCCCCC[P+](c1ccccc1)(c1ccccc1)c1ccccc1)OC(=O)CCCCCCCCCCCCCCC)OC(=O)CCCCCCCCCCCCCCC)C(C)=O` [Compound 17, (39-acetyl-18,21,29,32,41-pentaoxo-17,28-bis(palmitoyloxy)-11-(10-(triphenylphosphonio)decyl)-40-oxa-11,17,22,28,33,39-hexaazahexapentacontyl)triphenylphosphonium trichloride], the IC50 with MCF7 cells (Homo sapiens, crystal violet) turned out to be 0.7 µM.

In the case of `O=c1[nH]cc(F)c(=O)[nH]1` [Fluorouracil, fluorouracil], the “Median-Effect Plot parameter m (slope)” value in test [1] (48 hours) is listed as 0.33. Also, the IC50 worked out at 48.3 µM in test [1] (48 hours) and 48.3 µM in test [1] (Homo sapiens, BXPC-3, 48 h).

As for `O=[N+]([O-])[O-].O=[N+]([O-])[O-].O=[N+]([O-])[O-].[Ga+3]` [Ga(NO3)2, gallium nitrate, reference compound], the “percentage of death cells by annexinV/PI staining” value in the test on non malignant cells (BJ) is listed as 14.45 (5.6).

Regarding `CC(=O)N(O)CCCCCNC(=O)CCC(=O)N(O)CCCCCNC(=O)CCC(=O)N(O)CCCCCN(CCCCCC[P+](c1ccccc1)(c1ccccc1)c1ccccc1)CCCCCC[P+](c1ccccc1)(c1ccccc1)c1ccccc1.[Cl-].[Cl-]` [compound 3, Triphenyl(3,14,25-trihydroxy-2,10,13,21,24-pentaoxo-31-(6-(triphenylphosphonio)hexyl)-3,9,14,20,25,31-hexaazaheptatriacontan-37-yl)phosphonium chloride], the “mean percentage of surviving cells compared to non-treated controls” value (from here on “mean percentage … to non-treated controls”) in the test on BT474 cells (BT474, 4 μM) was 101.7%; in the test on BT474 cells (BT474, 6 μM), 109.1%; with BT474 cells (BT474, 8 μM), 104.1%; in the test on BT474 cells (BT474, 10 μM), 99.2%; in the test on BT474 cells (BT474, 20 μM), 91.5%; with BT474 cells (BT474, 40 μM) it was 74.2%. Further, the “mean percentage … to non-treated controls” value in the test on BT474 cells (BT474, 60 μM) was 58.9%; with BT474 cells (BT474, 80 μM), 49.6%; with BT474 cells (BT474, 100 μM), 47.8%; in the test on MCF7 cells (MCF7, 4 μM, crystal violet) it was 100.4%; in the test with MCF7 cells (MCF7, 6 μM, crystal violet), 99.1%; in the test on MCF7 cells (MCF7, 8 μM, crystal violet), 98.2%. The “mean percentage … to non-treated controls” value worked out at 84.0% in the test on MCF7 cells (MCF7, 20 μM, crystal violet); 74.6% with MCF7 cells (MCF7, 40 μM, crystal violet); 55.2% in the test on MCF7 cells (MCF7, 60 μM, crystal violet); 43.2% in the test with MCF7 cells (MCF7, 80 μM, crystal violet); 37.9% in the test on MCF7 cells (MCF7, 100 μM, crystal violet); 97.7% in the test on MDA-MB-231 cells (MDA-MB-231, 4 μM). For the same compound, the “mean percentage … to non-treated controls” value in the test with MDA-MB-231 cells (MDA-MB-231, 6 μM) is recorded as 95.3%; with MDA-MB-231 cells (MDA-MB-231, 8 μM) it was 103.1%; with MDA-MB-231 cells (MDA-MB-231, 10 μM), 97.4%; in the test on MDA-MB-231 cells (MDA-MB-231, 20 μM), 98.9%; with MDA-MB-231 cells (MDA-MB-231, 40 μM), 91.3%; in the test with MDA-MB-231 cells (MDA-MB-231, 60 μM), 86.5%. Also, the “mean percentage … to non-treated controls” value came to 77.2% with MDA-MB-231 cells (MDA-MB-231, 80 μM) and 76.0% in the test on MDA-MB-231 cells (MDA-MB-231, 100 μM). The IC50 stood at 83.5 µM with BT474 cells (Homo sapiens, BT-474, BT474, 48 hours, read-out: IC50 cellular viability); 70.4 µM in the test on MCF7 cells (Homo sapiens, crystal violet); 232 µM in the test on MDA-MB-231 cells (Homo sapiens, MDA-MB-231, 48 h, read-out: IC50 cellular viability). Further, in the test on MCF7 cells (setting [3]), the viability at 10 µM is 93.9%.

On to `COc1cccc2c1C(=O)c1c(O)c3c(c(O)c1C2=O)C[C@@](O)(C(=O)CO)C[C@@H]3O[C@H]1C[C@H](N)[C@H](O)[C@H](C)O1` [doxorubicin], for which, in test [2], the IC50 is 0.319 µM; the “concentration of the cytostatic at IC75, cytostatic alone” value was found to be 3.5789 µM; the “Median-Effect Plot parameter m (slope)” value amounted to 0.4543.

On to `CC(=O)O[C@H]1C(=O)[C@@]2(C)[C@H]([C@H](OC(=O)c3ccccc3)[C@]3(O)C[C@H](OC(=O)[C@H](O)[C@@H](NC(=O)c4ccccc4)c4ccccc4)C(C)=C1C3(C)C)[C@]1(OC(C)=O)CO[C@@H]1C[C@@H]2O` [paclitaxel], for which, in test [2], the IC50 was 0.0189 µM; the “concentration of the cytostatic at IC75, cytostatic alone” value stood at 0.1420 µM; the “Median-Effect Plot parameter m (slope)” value was found to be 0.5451.
